Measurements reported in the NIST ThermoML archive (doi:10.1016/j.jct.2013.09.039).
Numbers after ± are expanded uncertainties.

Assay: xn = mol fraction of the nth substance listed
Settings: Liquid, Vibrating tube method

Cc1ccc(C)cc1 [1,4-dimethylbenzene] + CCCCCCCCCC
mass density [kg/m3]
Settings	100 kPa	5000 kPa	10000 kPa	20000 kPa	30000 kPa	40000 kPa
288.15 K, x2 = 0.0513	854 ± 4	858 ± 4	861.4 ± 4	867.9 ± 4	873.8 ± 4	879.5 ± 4
288.15 K, x2 = 0.0971	845.3 ± 4	849.4 ± 4	852.8 ± 4	859.2 ± 4	865 ± 4	870.8 ± 4
288.15 K, x2 = 0.1962	828.2 ± 4	831.6 ± 4	835 ± 4	841.5 ± 4	847.4 ± 4	853.3 ± 4
288.15 K, x2 = 0.2932	812.1 ± 4	815.9 ± 4	819.4 ± 4	825.7 ± 4	831.8 ± 4	837.6 ± 4
288.15 K, x2 = 0.3942	799.8 ± 4	803.5 ± 4	806.9 ± 4	813.5 ± 4	819.4 ± 4	825.1 ± 4
288.15 K, x2 = 0.4987	784.1 ± 4	787.7 ± 4	791.4 ± 4	797.7 ± 4	803.8 ± 4	809.4 ± 4
288.15 K, x2 = 0.5563	777.2 ± 4	780.7 ± 4	784.2 ± 4	790.8 ± 4	796.7 ± 4	802.5 ± 4
288.15 K, x2 = 0.5965	773.9 ± 4	777 ± 4	779.5 ± 4	786 ± 4	792 ± 4	798.1 ± 4
288.15 K, x2 = 0.7018	761 ± 4	764.7 ± 4	768.4 ± 4	774.8 ± 4	780.7 ± 4	786.3 ± 4
288.15 K, x2 = 0.8047	750.8 ± 4	754.4 ± 4	757.9 ± 4	764.3 ± 4	770.4 ± 4	776 ± 4
288.15 K, x2 = 0.8975	741 ± 4	745.1 ± 4	748.6 ± 4	755.6 ± 4	761.9 ± 4	768.1 ± 4
288.15 K, x2 = 0.9474	738 ± 4	741.8 ± 4	745.2 ± 4	751.5 ± 4	757.6 ± 4	763.2 ± 4
298.15 K, x2 = 0.0513	845.7 ± 4	850.1 ± 4	853.3 ± 4	860 ± 4	866.2 ± 4	872.1 ± 4
298.15 K, x2 = 0.0971	837.1 ± 4	841.3 ± 4	844.4 ± 4	851.2 ± 4	857.6 ± 4	863.4 ± 4
298.15 K, x2 = 0.1962	819.6 ± 4	823.7 ± 4	827 ± 4	833.8 ± 4	840.2 ± 4	846 ± 4
298.15 K, x2 = 0.2932	804 ± 4	808.2 ± 4	811.4 ± 4	818.4 ± 4	824.7 ± 4	830.4 ± 4
298.15 K, x2 = 0.3942	791.6 ± 4	795.8 ± 4	799.2 ± 4	806 ± 4	812.4 ± 4	818.2 ± 4
298.15 K, x2 = 0.4987	776 ± 4	780.5 ± 4	783.6 ± 4	790.4 ± 4	796.8 ± 4	802.6 ± 4
298.15 K, x2 = 0.5563	769 ± 4	773.4 ± 4	776.7 ± 4	783.6 ± 4	789.9 ± 4	795.7 ± 4
298.15 K, x2 = 0.5965	765 ± 4	768.7 ± 4	771.9 ± 4	778.8 ± 4	785.2 ± 4	791.1 ± 4
298.15 K, x2 = 0.7018	753.2 ± 4	757.6 ± 4	760.8 ± 4	767.7 ± 4	774 ± 4	779.8 ± 4
298.15 K, x2 = 0.8047	742.9 ± 4	747.2 ± 4	750.5 ± 4	757.4 ± 4	763.7 ± 4	769.5 ± 4
298.15 K, x2 = 0.8975	734.6 ± 4	738.6 ± 4	741.8 ± 4	748.2 ± 4	755.2 ± 4	761.6 ± 4
298.15 K, x2 = 0.9474	730.4 ± 4	734.6 ± 4	738 ± 4	744.7 ± 4	750.9 ± 4	757.2 ± 4
308.15 K, x2 = 0.0513	837.2 ± 4	841.3 ± 4	844.9 ± 4	851.9 ± 4	858.8 ± 4	865.1 ± 4
308.15 K, x2 = 0.0971	828.6 ± 4	832.6 ± 4	836.5 ± 4	843.4 ± 4	849.8 ± 4	856 ± 4
308.15 K, x2 = 0.1962	811.1 ± 4	815.2 ± 4	819.1 ± 4	826 ± 4	832.7 ± 4	838.9 ± 4
308.15 K, x2 = 0.2932	795.7 ± 4	799.9 ± 4	803.7 ± 4	810.6 ± 4	817.4 ± 4	823.6 ± 4
308.15 K, x2 = 0.3942	783.5 ± 4	787.7 ± 4	791.4 ± 4	798.6 ± 4	805.2 ± 4	811.3 ± 4
308.15 K, x2 = 0.4987	768.1 ± 4	772.1 ± 4	776.1 ± 4	783.3 ± 4	789.9 ± 4	795.9 ± 4
308.15 K, x2 = 0.5563	761 ± 4	765.2 ± 4	769.3 ± 4	776.4 ± 4	783 ± 4	789.1 ± 4
308.15 K, x2 = 0.5965	757 ± 4	760.6 ± 4	764.5 ± 4	771.7 ± 4	778.2 ± 4	785 ± 4
308.15 K, x2 = 0.7018	746.3 ± 4	749.6 ± 4	753.5 ± 4	760.6 ± 4	767 ± 4	773.3 ± 4
308.15 K, x2 = 0.8047	736.1 ± 4	739.4 ± 4	743.3 ± 4	750.3 ± 4	757 ± 4	763.1 ± 4
308.15 K, x2 = 0.8975	727.9 ± 4	731.3 ± 4	734.8 ± 4	741.9 ± 4	748.5 ± 4	755.1 ± 4
308.15 K, x2 = 0.9474	723.2 ± 4	726.8 ± 4	730.9 ± 4	737.9 ± 4	744.4 ± 4	750.9 ± 4

Cc1ccc(C)cc1 [1,4-dimethylbenzene] + COC(=O)OC
mass density [kg/m3]
Settings	x2 = 0.0432	x2 = 0.195	x2 = 0.3968	x2 = 0.4933	x2 = 0.5296	x2 = 0.5993	x2 = 0.7034	x2 = 0.8023	x2 = 0.8921	x2 = 0.9478
288.15 K, 100 kPa	871.8 ± 4	894.2 ± 4	924.2 ± 4	944.9 ± 4	953.3 ± 4	968.4 ± 4	992.3 ± 4	1010.6 ± 4	1038.1 ± 4	1052.9 ± 4
288.15 K, 5000 kPa	875.5 ± 4	897.8 ± 4	931.9 ± 4	950.4 ± 4	957.3 ± 4	972.4 ± 4	996.2 ± 4	–	1042.5 ± 4	1057.2 ± 4
288.15 K, 10000 kPa	879.1 ± 4	901.3 ± 4	935.7 ± 4	954.1 ± 4	961.2 ± 4	976.3 ± 4	1000.3 ± 4	–	1046.6 ± 4	1061.4 ± 4
288.15 K, 20000 kPa	885.4 ± 4	907.8 ± 4	942.5 ± 4	961.4 ± 4	968.3 ± 4	983.7 ± 4	1007.8 ± 4	–	1054.5 ± 4	1069.4 ± 4
288.15 K, 30000 kPa	891.3 ± 4	914 ± 4	949 ± 4	967.9 ± 4	974.9 ± 4	990.5 ± 4	1014.7 ± 4	–	1061.5 ± 4	1076.7 ± 4
288.15 K, 40000 kPa	897.1 ± 4	920.1 ± 4	955.3 ± 4	974.3 ± 4	980.9 ± 4	997.1 ± 4	1021.4 ± 4	–	1068.7 ± 4	1083.8 ± 4
298.15 K, 100 kPa	863 ± 4	884.5 ± 4	917.8 ± 4	935.8 ± 4	942.5 ± 4	957.3 ± 4	980.5 ± 4	998.4 ± 4	1025.5 ± 4	1040 ± 4
298.15 K, 5000 kPa	867.3 ± 4	888.3 ± 4	922.5 ± 4	940.6 ± 4	947.1 ± 4	962 ± 4	985.4 ± 4	1003.4 ± 4	1030.6 ± 4	1044.9 ± 4
298.15 K, 10000 kPa	870.4 ± 4	892.1 ± 4	925.8 ± 4	944 ± 4	950.7 ± 4	965.7 ± 4	989.1 ± 4	–	1034.7 ± 4	1049 ± 4
298.15 K, 20000 kPa	877.1 ± 4	899.2 ± 4	933.2 ± 4	951.6 ± 4	958.2 ± 4	973.4 ± 4	997 ± 4	–	1042.9 ± 4	1057.5 ± 4
298.15 K, 30000 kPa	883.4 ± 4	905.5 ± 4	939.9 ± 4	958.7 ± 4	965.4 ± 4	980.5 ± 4	1004.4 ± 4	1022.7 ± 4	1050.6 ± 4	1065 ± 4
298.15 K, 40000 kPa	889.1 ± 4	911.7 ± 4	946.5 ± 4	965.1 ± 4	972 ± 4	987.3 ± 4	1011.2 ± 4	1030.1 ± 4	1057.9 ± 4	1072.7 ± 4
308.15 K, 100 kPa	854.3 ± 4	875.2 ± 4	907.6 ± 4	925.2 ± 4	931.7 ± 4	946.3 ± 4	969 ± 4	–	1013.1 ± 4	1027.2 ± 4
308.15 K, 5000 kPa	858.1 ± 4	879.3 ± 4	912.1 ± 4	929.7 ± 4	936.2 ± 4	950.8 ± 4	973.7 ± 4	–	1018 ± 4	1032.1 ± 4
308.15 K, 10000 kPa	862 ± 4	883.3 ± 4	916.2 ± 4	934.1 ± 4	940.4 ± 4	955.2 ± 4	978.2 ± 4	–	1022.7 ± 4	1036.8 ± 4
308.15 K, 20000 kPa	869.1 ± 4	890.7 ± 4	924 ± 4	941.8 ± 4	948.4 ± 4	958.3 ± 4	986.4 ± 4	1004.4 ± 4	1031.5 ± 4	1045.7 ± 4
308.15 K, 30000 kPa	875.7 ± 4	897.5 ± 4	931.2 ± 4	949.4 ± 4	956 ± 4	970.9 ± 4	994.2 ± 4	1012.2 ± 4	1039.7 ± 4	1054 ± 4
308.15 K, 40000 kPa	881.7 ± 4	904 ± 4	937.9 ± 4	956.3 ± 4	963 ± 4	978.1 ± 4	1001.5 ± 4	1019.8 ± 4	1047.4 ± 4	1061.7 ± 4
